Where a name gives a salt, the structure may show the parent alone.
System: eNOS promoter
Assay: Activation of eNOS transcription (eNOS promoter firefly luciferase reporter gene assay)
Format: cell-based
Conditions: human endothelial cell line stably transfected with eNOS promoter-luciferase construct, 18 h incubation; read-out: EC50 values of transcription induction ratios (TIR)
Experimental: Activation of eNOS transcription was measured as described in detail by Li et al., “Activation of protein kinase C alpha and/or epsilon enhances transcription of the human endothelial nitric oxide synthase gene”, Mol. Pharmacol. 53 (1998) 630. Briefly, a 3.5 kB long fragment 5′ of the starting codon of the eNOS gene was cloned, sequenced and cloned in firefly luciferase expression plasmids to monitor activation of the eNOS promoter by reporter gene activity. A human endothelial cell line stable transfected and expressing this promoter-reporter construct was used for compound testing. Cells were incubated for 18 h with the compounds.
All compounds were dissolved in sterile dimethyl sulfoxide (DMSO). A final concentration of 0.5% DMSO in complete medium was allowed. Induction of reporter gene expression in these cells was measured using a standard luciferase assay system (Promega, Cat. No. E150) according to the manufacturer's instructions. Luciferase induction in cells incubated with compounds were compared to those incubated with solvent alone. The ratio of both activities (transcription induction ratio, TIR) was plotted as a function of compound concentration. Typically, TIR values started at low concentrations at a ratio of 1, indicating no compound effect, and extended up to a maximum TIR value TIR(max) which indicates the increase of the eNOS transcription. EC50 values of transcription induction ratios as a function of compound concentration were determined graphically.

Row | SMILES | EC50 [nM]
1 | COC(=O)c1ccc2nc(-c3ccccc3)c(C)n2c1 [Example 3, 3-Methyl-2-phenyl-imidazo[1,2-a]pyridine-6-carboxylic acid methyl ester] | < 500
2 | COC(=O)c1ccc2nc(-c3ccc(C)cc3)cn2c1 [Example 7, 2-p-Tolyl-imidazo[1,2-a]pyridine-6-carboxylic acid methyl ester] | < 500
3 | COC(=O)c1ccc2nc(-c3ccc(OC(F)(F)F)cc3)cn2c1 [Example 16, 2-(4-Trifluoromethoxy-phenyl)-imidazo[1,2-a]pyridine-6-carboxylic acid methyl ester] | < 500
4 | COC(=O)c1ccc2nc(-c3cccc(F)c3)cn2c1 [Example 14, 2-(3-Fluoro-phenyl)-imidazo[1,2-a]pyridine-6-carboxylic acid methyl ester] | < 500
5 | COC(=O)c1ccc2nc(-c3ccc(F)c(F)c3)cn2c1 [Example 19, 2-(3,4-Difluoro-phenyl)-imidazo[1,2-a]pyridine-6-carboxylic acid methyl ester] | < 500
6 | COC(=O)c1ccc2nc(-c3ccccc3Cl)cn2c1 [Example 20, 2-(2-Chloro-phenyl)-imidazo[1,2-a]pyridine-6-carboxylic acid methyl ester] | < 500
7 | COC(=O)c1ccc2nc(-c3ccc(Br)cc3)cn2c1 [Example 12, 2-(4-Bromo-phenyl)-imidazo[1,2-a]pyridine-6-carboxylic acid methyl ester] | < 500
8 | COC(=O)c1ccc2nc(-c3cccc([N+](=O)[O-])c3)cn2c1 [Example 8, 2-(3-Nitro-phenyl)-imidazo[1,2-a]pyridine-6-carboxylic acid methyl ester] | < 500
9 | COC(=O)c1ccc2nc(-c3ccc(Br)c(S(N)(=O)=O)c3)cn2c1 [Example 21, 2-(4-Bromo-3-sulfamoyl-phenyl)-imidazo[1,2-a]pyridine-6-carboxylic acid methyl ester] | < 500
10 | COC(=O)c1ccc2nc(-c3ccc(Br)cc3)c(C)n2c1 [Example 2, 2-(4-Bromo-phenyl)-3-methyl-imidazo[1,2-a]pyridine-6-carboxylic acid methyl ester] | < 500
11 | COC(=O)c1ccc2nc(-c3ccccc3)cn2c1 [Example 13, 2-Phenyl-imidazo[1,2-a]pyridine-6-carboxylic acid methyl ester] | < 500
12 | COC(=O)c1ccc2nc(-c3ccc(OC)cc3)cn2c1 [Example 10, 2-(4-Methoxy-phenyl)-imidazo[1,2-a]pyridine-6-carboxylic acid methyl ester] | < 500
13 | COC(=O)c1ccc2nc(-c3ccccc3F)cn2c1 [Example 5, 2-(2-Fluoro-phenyl)-imidazo[1,2-a]pyridine-6-carboxylic acid methyl ester] | < 500
14 | COC(=O)c1ccc2nc(-c3ccc(C(F)(F)F)cc3)cn2c1 [Example 15, 2-(4-Trifluoromethyl-phenyl)-imidazo[1,2-a]pyridine-6-carboxylic acid methyl ester] | < 500
15 | COC(=O)c1ccc2nc(-c3ccc(F)cc3)cn2c1 [Example 1, 2-(4-Fluoro-phenyl)-imidazo[1,2-a]pyridine-6-carboxylic acid methyl ester] | < 500
16 | CCN(CC)c1ccc(-c2cn3cc(C(=O)OC)ccc3n2)cc1 [Example 17, 2-(4-Diethylamino-phenyl)-imidazo[1,2-a]pyridine-6-carboxylic acid methyl ester] | < 500

Second part, the compound after the results:

Row | EC50 [nM] | SMILES
17 | < 500 | Cc1ccc(-c2cn3cc(C#N)ccc3n2)cc1 [Example 54, 2-p-Tolyl-imidazo[1,2-a]pyridine-6-carbonitrile]
18 | < 500 | COC(=O)c1ccc2nc(-c3ccc(N)cc3)cn2c1 [Example 44, 2-(4-Amino-phenyl)-imidazo[1,2-a]pyridine-6-carboxylic acid methyl ester]
19 | < 500 | Fc1ccc(-c2cn3cc(Br)ccc3n2)cc1 [Example 61, 6-Bromo-2-(4-fluoro-phenyl)-imidazo[1,2-a]pyridine]
20 | < 500 | COC(=O)c1ccc2nc(-c3cc(F)cc(F)c3)cn2c1 [Example 32, 2-(3,5-Difluoro-phenyl)-imidazo[1,2-a]pyridine-6-carboxylic acid methyl ester]
21 | < 500 | COC(=O)c1ccc2nc(-c3ccc4c(c3)OCCO4)cn2c1 [Example 34, 2-(2,3-Dihydro-benzo[1,4]dioxin-6-yl)-imidazo[1,2-a]pyridine-6-carboxylic acid methyl ester]
22 | < 500 | COC(=O)c1ccc2nc(-c3ccc([N+](=O)[O-])cc3)cn2c1 [Example 38, 2-(4-Nitro-phenyl)-imidazo[1,2-a]pyridine-6-carboxylic acid methyl ester]
23 | < 500 | COC(=O)c1ccc2nc(-c3ccc(-c4ccccc4)cc3)cn2c1 [Example 37, 2-Biphenyl-4-yl-imidazo[1,2-a]pyridine-6-carboxylic acid methyl ester]
24 | < 500 | COC(=O)c1ccc2nc(-c3ccc(C)cc3C)cn2c1 [Example 25, 2-(2,4-Dimethyl-phenyl)-imidazo[1,2-a]pyridine-6-carboxylic acid methyl ester]
25 | < 500 | COC(=O)c1ccc2nc(-c3cccc(C#N)c3)cn2c1 [Example 23, 2-(3-Cyano-phenyl)-imidazo[1,2-a]pyridine-6-carboxylic acid methyl ester]
26 | < 500 | CCOC(=O)ONC(=N)c1ccc2nc(-c3ccc(F)cc3)cn2c1 [Example 60, 2-(4-Fluoro-phenyl)-N-ethoxycarbonyloxy-imidazo[1,2-a]pyridine-6-carboxamidine]
27 | < 500 | Cc1ccc(-c2cn3cc(/C(N)=N/O)ccc3n2)cc1 [Example 57, N-Hydroxy-2-p-tolyl-imidazo[1,2-a]pyridine-6-carboxamidine]
28 | < 500 | COC(=O)c1ccc2nc(-c3cccc(C(F)(F)F)c3)cn2c1 [Example 33, 2-(3-Trifluoromethyl-phenyl)-imidazo[1,2-a]pyridine-6-carboxylic acid methyl ester]
29 | < 500 | COC(=O)c1ccc2nc(-c3ccc(Cl)cc3Cl)cn2c1 [Example 28, 2-(2,4-Dichloro-phenyl)-imidazo[1,2-a]pyridine-6-carboxylic acid methyl ester]
30 | < 500 | Nc1ccc2nc(-c3ccc(F)cc3)cn2c1 [Example 66, 2-(4-Fluoro-phenyl)-imidazo[1,2-a]pyridin-6-ylamine]
31 | < 500 | COC(=O)c1ccc2nc3c(n2c1)Cc1ccccc1-3 [Example 42, 11H-Indeno[1′,2′:4,5]imidazo[1,2-a]pyridine-8-carboxylic acid methyl ester]
32 | < 500 | Cc1ccc(-c2cn3cc(C(=O)O)ccc3n2)cc1 [Example 46, 2-p-Tolyl-imidazo[1,2-a]pyridine-6-carboxylic acid]
33 | < 500 | N=C(NO)c1ccc2nc(-c3ccc(F)cc3)cn2c1 [Example 56, 2-(4-Fluoro-phenyl)-N-hydroxy-imidazo[1,2-a]pyridine-6-carboxamidine]
34 | < 500 | N#Cc1ccc2nc(-c3ccc(F)cc3)cn2c1 [Example 52, 2-(4-Fluoro-phenyl)-imidazo[1,2-a]pyridine-6-carbonitrile]
35 | < 500 | COC(=O)c1ccc2nc(-c3cccc(Cl)c3)cn2c1 [Example 31, 2-(3-Chloro-phenyl)-imidazo[1,2-a]pyridine-6-carboxylic acid methyl ester]
36 | < 500 | COC(=O)c1ccc2nc(-c3cccc(Br)c3)cn2c1 [Example 24, 2-(3-Bromo-phenyl)-imidazo[1,2-a]pyridine-6-carboxylic acid methyl ester]
37 | < 500 | CCN(CC)c1ccc(-c2cn3cc(C#N)ccc3n2)cc1 [Example 53, 2-(4-Diethylamino-phenyl)-imidazo[1,2-a]pyridine-6-carbonitrile trifluoroacetic acid salt]
38 | < 500 | O=CNc1ccc2nc(-c3ccc(F)cc3)cn2c1 [Example 67, N-[2-(4-Fluoro-phenyl)-imidazo[1,2-a]pyridin-6-yl]-formamide]

From patent US8399476B2, “Imidazo[1,2-a]pyridines and their use as pharmaceuticals” (Sanofi, priority 2007, dated 2013)
